Data reported in ChEMBL document CHEMBL1201862, “PubChem BioAssay data set” (2004).
The source made the active and inactive calls.

What was measured:
[1] = Vero cell cytotoxicity, dose response, cytotoxicity control for Vif-APOBEC3G degradation inhibitor project, Vero cells (AID 1117358); assay type: functional; settings: Human immunodeficiency virus 1, Vero
[2] = inhibitors of Vif binding to APOBEC3G peptide, primary screen, biochemical, TR-FRET, GST-Vif 1-94, biotin-A3G peptide, dose response retest (AID 1117319); assay type: functional;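 also: TR-FRET signal of purified GST-Vif binding a biotinylated A3G peptide; inhibitors lower the FRET signal by blocking Vif and A3G binding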
[3] = biological target: Mitogen-activated protein kinase 10 (Homo sapiens, UniProt P53779); experiment: Dose response biochemical screening assay for inhibitors of c-Jun N-Terminal Kinase 3 (JNK3). [Related pubchem assays: 746 ]
Mitogen-activated protein kinase 10, sequence (P53779 whole entry): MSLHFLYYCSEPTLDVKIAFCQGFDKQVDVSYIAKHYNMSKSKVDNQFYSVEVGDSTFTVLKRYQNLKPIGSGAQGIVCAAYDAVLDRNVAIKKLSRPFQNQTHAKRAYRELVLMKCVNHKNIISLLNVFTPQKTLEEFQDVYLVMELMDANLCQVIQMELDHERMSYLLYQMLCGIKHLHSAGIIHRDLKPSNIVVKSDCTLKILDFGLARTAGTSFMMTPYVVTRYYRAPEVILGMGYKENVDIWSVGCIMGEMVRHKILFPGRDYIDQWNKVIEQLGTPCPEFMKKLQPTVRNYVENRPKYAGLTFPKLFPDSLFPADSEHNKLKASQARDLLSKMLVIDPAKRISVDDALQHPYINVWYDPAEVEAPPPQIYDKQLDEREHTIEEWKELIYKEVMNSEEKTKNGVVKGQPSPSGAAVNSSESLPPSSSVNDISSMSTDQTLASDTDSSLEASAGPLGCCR

[4] = biological target: T1, DNA repair protein RAD52 homolog (Homo sapiens, UniProt P43351); assay type: functional, biochemical
T1 sequence (P43351 whole entry): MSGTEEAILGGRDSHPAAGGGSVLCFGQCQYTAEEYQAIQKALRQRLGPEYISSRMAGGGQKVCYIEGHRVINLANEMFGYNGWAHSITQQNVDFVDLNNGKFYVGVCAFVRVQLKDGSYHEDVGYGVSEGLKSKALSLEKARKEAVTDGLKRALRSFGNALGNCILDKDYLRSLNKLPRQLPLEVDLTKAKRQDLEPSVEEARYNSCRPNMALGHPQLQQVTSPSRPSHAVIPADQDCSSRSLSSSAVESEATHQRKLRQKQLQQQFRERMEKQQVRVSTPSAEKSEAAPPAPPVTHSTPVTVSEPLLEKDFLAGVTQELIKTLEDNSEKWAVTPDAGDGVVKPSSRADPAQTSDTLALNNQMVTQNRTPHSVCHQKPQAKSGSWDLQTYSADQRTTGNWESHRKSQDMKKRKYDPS

[5] = RKO cell viability reduction, dose response, CellTiter-Glo luminescence (AID 1117322); assay type: functional
cells = assay type: functional, cell-based; settings: INS-1E
[6] = CellTiter-Glo luminescent dose response of DLD-1 viability loss (AID 1117352); assay type: functional
[7] = HepG2 cell cytotoxicity, dose response, cytotoxicity control, ATP luminescence, cherry-pick, activator set 2 (AID 1053143); assay type: functional, cell-based
[8] = SNU-C1 cell viability reduction, dose response, CellTiter-Glo luminescence (AID 1117323); assay type: functional, cell-based
[9] = cytotoxicity toward NIH3T3 fibroblasts, dose response, counter-screen, cell-based, ATP luminescence, mouse fibroblasts (AID 2010); assay type: functional;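 also: cells exposed to compound for about 90 hours before reading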
[10] = HCT116 cell viability decrease, GSK3B pretreatment – CellTiter-Glo, IC50, dose response (AID 1117339); assay type: functional; settings: HCT-116
[11] = cytotoxicity toward Colo320 cells – cell-based, CellTiter-Glo luminescence, IC50, dose response (AID 1117334); assay type: functional; settings: COLO 320
[12] = Dose-response inhibition of insulin secretion in a rat insulinoma line at 5 mM glucose (AID 1117331); assay type: functional, cell-based; settings: INS-1E
[13] = biological target: SWI/SNF-related matrix-associated actin-dependent regulator of chromatin subfamily A member 2 (Homo sapiens, UniProt P51531); experiment: Luminescence-based cell-based high throughput dose response assay to identify activators of the function of SWI/SNF related, matrix associated, actin dependent regulator of chromatin, subfamily a, member 2 (SMARCA2, BRM).; assay type: functional
SWI/SNF-related matrix-associated actin-dependent regulator of chromatin subfamily A member 2, sequence (P51531 whole entry): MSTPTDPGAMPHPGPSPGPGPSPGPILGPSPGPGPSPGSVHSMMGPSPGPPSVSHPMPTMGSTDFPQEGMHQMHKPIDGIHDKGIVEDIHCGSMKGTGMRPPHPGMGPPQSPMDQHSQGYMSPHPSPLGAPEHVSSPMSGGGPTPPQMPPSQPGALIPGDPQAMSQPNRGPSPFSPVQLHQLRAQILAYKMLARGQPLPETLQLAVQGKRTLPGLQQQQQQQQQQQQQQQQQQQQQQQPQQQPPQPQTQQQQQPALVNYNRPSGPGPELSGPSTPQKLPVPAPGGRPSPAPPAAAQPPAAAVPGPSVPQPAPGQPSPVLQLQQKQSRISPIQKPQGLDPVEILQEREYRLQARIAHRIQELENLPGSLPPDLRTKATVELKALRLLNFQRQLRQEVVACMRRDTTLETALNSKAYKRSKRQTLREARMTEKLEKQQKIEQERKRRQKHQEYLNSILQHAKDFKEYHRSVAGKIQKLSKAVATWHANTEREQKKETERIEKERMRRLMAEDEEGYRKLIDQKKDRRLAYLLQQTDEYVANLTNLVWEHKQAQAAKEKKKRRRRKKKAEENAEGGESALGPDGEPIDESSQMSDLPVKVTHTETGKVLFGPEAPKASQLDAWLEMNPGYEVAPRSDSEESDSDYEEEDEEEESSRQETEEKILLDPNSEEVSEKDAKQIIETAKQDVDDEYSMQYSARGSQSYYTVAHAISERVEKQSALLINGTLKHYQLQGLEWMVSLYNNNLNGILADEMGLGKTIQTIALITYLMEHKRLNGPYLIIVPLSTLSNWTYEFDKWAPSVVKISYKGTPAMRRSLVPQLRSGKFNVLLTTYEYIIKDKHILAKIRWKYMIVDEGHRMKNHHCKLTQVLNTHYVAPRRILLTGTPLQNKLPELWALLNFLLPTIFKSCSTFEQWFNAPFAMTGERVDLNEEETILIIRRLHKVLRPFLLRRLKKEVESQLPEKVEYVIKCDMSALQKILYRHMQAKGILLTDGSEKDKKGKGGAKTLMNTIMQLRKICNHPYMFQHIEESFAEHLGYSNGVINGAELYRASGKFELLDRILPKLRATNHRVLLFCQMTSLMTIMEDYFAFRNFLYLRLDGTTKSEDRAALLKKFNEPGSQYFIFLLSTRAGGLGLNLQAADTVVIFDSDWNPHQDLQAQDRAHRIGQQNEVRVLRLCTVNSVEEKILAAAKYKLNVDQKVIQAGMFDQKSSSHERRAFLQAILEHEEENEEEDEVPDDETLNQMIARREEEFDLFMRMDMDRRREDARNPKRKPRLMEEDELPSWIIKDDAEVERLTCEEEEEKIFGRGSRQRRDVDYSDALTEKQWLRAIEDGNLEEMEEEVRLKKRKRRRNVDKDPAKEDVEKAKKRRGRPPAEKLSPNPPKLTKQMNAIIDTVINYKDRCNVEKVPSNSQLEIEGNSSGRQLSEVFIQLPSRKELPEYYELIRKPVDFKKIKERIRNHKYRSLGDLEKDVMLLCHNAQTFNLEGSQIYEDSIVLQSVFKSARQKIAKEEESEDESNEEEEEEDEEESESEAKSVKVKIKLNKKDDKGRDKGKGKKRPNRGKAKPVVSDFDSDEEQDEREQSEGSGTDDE

[14] = cytotoxicity toward HCT116 cells – cell-based, CellTiter-Glo luminescence, IC50, dose response (AID 1117332); assay type: functional; settings: HCT-116
[15] = inhibitors of intracellular T. cruzi replication, confirmation, NIH3T3 host cells, beta-gal luminescence (AID 2044); assay type: functional, cell-based;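 also: intracellular parasites grown in NIH/3T3 mouse fibroblasts as host cells; luminescent beta-galactosidase reporter signal from transgenic T. cruzi replicating inside host cells; inhibitors lower the luminescence signal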
[16] = cytotoxicity toward HT-29 cells – cell-based, CellTiter-Glo luminescence, IC50, dose response (AID 1117330); assay type: functional
[17] = Counterscreen for activators of the function of SWI/SNF related, matrix associated, actin dependent regulator of chromatin, subfamily a, member 2 (SMARCA2, BRM): Luminescence-based cell-based high throughput dose response assay to identify non-selective compounds using the VP16 reporter assay.; assay type: functional
[18] = Concentration-dependent survival of SW480 colon cancer line, luminescence detection with CellTiter-Glo, half-maximal inhibitory concentration (AID 1117338); assay type: functional
Caspase-6 = biological target: T2, Caspase-6 (Homo sapiens, UniProt P55212); experiment: human caspase-6 inhibitors, dose response, biochemical, VEID-R110 fluorescence, cherry-pick (AID 720632)
T2 sequence (P55212 whole entry): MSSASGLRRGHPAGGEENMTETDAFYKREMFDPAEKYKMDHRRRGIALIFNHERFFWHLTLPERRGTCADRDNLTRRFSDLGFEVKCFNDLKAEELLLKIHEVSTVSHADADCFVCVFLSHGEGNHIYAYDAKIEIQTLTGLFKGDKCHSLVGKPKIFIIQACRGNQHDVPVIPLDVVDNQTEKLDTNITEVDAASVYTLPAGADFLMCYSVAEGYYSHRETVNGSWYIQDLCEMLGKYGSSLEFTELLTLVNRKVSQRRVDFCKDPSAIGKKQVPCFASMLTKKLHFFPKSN

Protein Tat = Protein Tat (Human immunodeficiency virus type 1 group M subtype B (isolate HXB2)(HIV-1), UniProt P04608); assay type: functional;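 also: tat binding to TAR RNA read out by fluorescence polarization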
Protein Tat, sequence (P04608 whole entry): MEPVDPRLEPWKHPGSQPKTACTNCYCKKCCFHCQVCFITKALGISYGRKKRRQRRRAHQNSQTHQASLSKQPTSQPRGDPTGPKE

ELAV-like protein 1 = ELAV-like protein 1 (Homo sapiens, UniProt Q15717); experiment: Identify HuR specific inhibitors.; assay type: functional
ELAV-like protein 1, sequence (Q15717 whole entry): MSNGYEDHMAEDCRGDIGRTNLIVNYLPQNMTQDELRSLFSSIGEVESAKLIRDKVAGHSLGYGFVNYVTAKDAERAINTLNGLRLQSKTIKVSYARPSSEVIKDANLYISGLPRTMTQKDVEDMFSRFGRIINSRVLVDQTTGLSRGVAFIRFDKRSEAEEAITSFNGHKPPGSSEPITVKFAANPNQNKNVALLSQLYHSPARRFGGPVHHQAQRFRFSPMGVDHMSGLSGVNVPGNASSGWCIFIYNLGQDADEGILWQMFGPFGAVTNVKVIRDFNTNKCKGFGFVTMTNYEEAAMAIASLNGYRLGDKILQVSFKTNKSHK

[19] = biological target: T3, Rac GTPase-activating protein 1 (Homo sapiens, UniProt Q9H0H5); experiment: MgcRacGAP GTPase-activating activity inhibitors, confirmation, biochemical, ADP Hunter fluorescence, primary and confirmatory (AID 624330); assay type: functional
T3 sequence (Q9H0H5 whole entry): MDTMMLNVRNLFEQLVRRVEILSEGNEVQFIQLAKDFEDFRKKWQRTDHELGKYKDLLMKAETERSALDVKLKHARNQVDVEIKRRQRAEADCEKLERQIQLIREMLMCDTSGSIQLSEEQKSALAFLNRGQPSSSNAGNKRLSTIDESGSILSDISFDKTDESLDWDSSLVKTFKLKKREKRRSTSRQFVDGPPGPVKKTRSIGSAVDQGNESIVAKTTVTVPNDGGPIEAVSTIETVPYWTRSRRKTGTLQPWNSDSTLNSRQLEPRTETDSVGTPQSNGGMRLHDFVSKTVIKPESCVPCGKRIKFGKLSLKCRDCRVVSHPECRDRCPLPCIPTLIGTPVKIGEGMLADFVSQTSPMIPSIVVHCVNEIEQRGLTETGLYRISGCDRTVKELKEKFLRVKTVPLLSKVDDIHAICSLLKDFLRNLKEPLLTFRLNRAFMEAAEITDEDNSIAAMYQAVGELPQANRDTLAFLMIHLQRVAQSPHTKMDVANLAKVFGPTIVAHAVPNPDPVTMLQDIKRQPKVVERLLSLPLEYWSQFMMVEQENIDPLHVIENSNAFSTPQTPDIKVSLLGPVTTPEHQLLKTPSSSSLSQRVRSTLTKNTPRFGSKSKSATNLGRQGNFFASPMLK

[20] = P. falciparum Dd2 growth inhibitors, dose response, SYBR Green, dry powder samples (AID 1159566); assay type: functional, cell-based;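 also: potency for growth inhibition with lower SYBR green DNA signal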
[21] = P. falciparum 3D7-ScDHODH growth inhibitors, dose response, SYBR Green, dry powder samples (AID 1159570); assay type: functional, cell-based;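 also: parasite growth measured after 72 hours of compound exposure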
[22] = HepG2 cell cytotoxicity, dose response, cytotoxicity control, plate reader, dry powder samples (AID 1159569); assay type: functional, cell-based;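 also: inhibitor potency with signal falling toward the positive control level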
[23] = HepG2 cell cytotoxicity, dose response, cytotoxicity control, cherry-picked samples (AID 1159577); assay type: functional, cell-based
[24] = P. falciparum ATP4 D1247Y mutant growth inhibitors, dose response, NITD609-resistant line, SYBR Green, dry powder (AID 1159571); assay type: functional, cell-based;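 also: parasites synchronized at ring stage by sorbitol before testing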
[25] = P. falciparum Dd2 growth inhibitors, dose response, SYBR Green, cherry-picked samples (AID 1159567); assay type: functional, cell-based
[26] = biological target: T4, Low molecular weight phosphotyrosine protein phosphatase (Homo sapiens, UniProt P24666); experiment: LMPTP phosphatase inhibitors, dose response, biochemical, OMFP substrate, fluorescence intensity, set 2 (AID 743307); assay type: functional
T4 sequence (P24666 whole entry): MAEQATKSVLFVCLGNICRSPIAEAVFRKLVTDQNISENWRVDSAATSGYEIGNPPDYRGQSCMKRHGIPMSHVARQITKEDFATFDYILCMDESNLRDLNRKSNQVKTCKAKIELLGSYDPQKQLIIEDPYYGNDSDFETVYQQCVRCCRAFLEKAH

[27] = biological target: T4, Low molecular weight phosphotyrosine protein phosphatase; experiment: LMPTP phosphatase inhibitors, colorimetric pNPP readout, dose response, orthogonal assay, biochemical, absorbance, pNPP substrate, LMPTP-A isoform, set 2 (AID 743308); assay type: functional
[28] = HepG2 cell cytotoxicity, dose response, cytotoxicity control, luminescence, dry powder, set 9 (AID 743358); assay type: functional, cell-based
[29] = Glucagon-like peptide 1 release potency, NCI-H716 cell line, dose-response, half-maximal inhibitory concentration (AID 1117344); assay type: functional, cell-based
[30] = half-maximal inhibitory concentration for glucagon-like peptide-1 release, STC-1 cell line, dose-response (AID 1117345); assay type: functional, cell-based

With `CCOC(=O)c1c(NC(=O)C(C)N2CCN(C(=O)c3ccco3)CC2)sc2c1CCCC2` (configuration not stated) the CC50 [1] was 21.6 µM (active) and the IC50 [2] was > 100 µM (active).
With `O=C1C(c2ccncc2)=C(O)c2ccccc21` the IC50 [3] was 6.69 µM (active).
For `Nc1c2ccccc2nc2ccccc12`, the AC50 [4] was 2.48 µM (active), the IC50 [5] was > 6.67 µM (inactive) and the IC50 (cells) was > 33.3 µM (inactive). The IC50 [6] was > 20 µM (inactive), the AC50 [7] was 6.26 µM (active) and the IC50 [8] was > 6.67 µM (inactive). For the same compound, the EC50 [9] was 10.6 µM (active), the IC50 [10] was 3.87 µM (active) and the IC50 [11] was 8.81 µM (inactive). The IC50 [12] was 18.5 µM (inactive), the EC50 [13] was > 3.37 µM (active) and the IC50 [14] was 2.02 µM (active). For the same compound, the EC50 [15] was 1.16 µM (active), the IC50 [16] was > 20 µM (inactive) and the EC50 [17] was > 91.1 µM (inactive). For the same compound, the IC50 [18] was > 20 µM (inactive).
In the case of `Cc1ccc(Nc2ccc(N)cc2S(=O)(=O)O)cc1`, the AC50 (Caspase-6) is reported as 13.7 µM (active), the IC50 (Protein Tat) is reported as 49.3 µM (inconclusive) and the IC50 (ELAV-like protein 1) is reported as 41 µM (active). For the same compound, the IC50 [19] was 40.2 µM (active).
For `Cc1ccc(-c2ccc([C@@H]3[C@H](CO)N4CCCCN(S(=O)(=O)c5cccc(C)c5)C[C@@H]34)cc2)cc1`, the AC50 [20] was 0.955 µM (active), the AC50 [21] was 1.15 µM (active) and the AC50 [22] was 16.4 µM (active). The AC50 [23] was > 39 µM (inactive), the AC50 [24] was 0.87 µM (active) and the AC50 [25] was 1.49 µM (active).
In the case of `c1ccc(-c2cc(NCCN3CCCC3)c3ccccc3n2)cc1`, the IC50 [26] is reported as 5.46 µM (active) and the IC50 [27] is reported as 11.9 µM (active).
For `COc1cccc(NC(=O)N2CC[C@@H]3[C@@H](CO)N(C)c4ccc(-c5cccc(F)c5)cc4[C@@H]32)c1`, the AC50 [28] was > 52 µM (inactive).
In the case of `CCCCC(CC)COC(=O)CC(C(=O)OCC(CC)CCCC)S(=O)(=O)O` (configuration not stated) [DOCUSATE], the IC50 [5] is reported as > 20 µM (inactive), the IC50 [6] is reported as > 20 µM (inactive) and the IC50 [8] is reported as > 20 µM (inactive). For the same compound, the IC50 [10] was 16.6 µM (inactive), the IC50 [29] was 22.9 µM (inactive) and the IC50 [11] was > 20 µM (inactive). The IC50 [14] was > 20 µM (inactive), the IC50 [16] was > 20 µM (inactive) and the IC50 [30] was > 40 µM (inactive). For the same compound, the IC50 [18] was > 20 µM (inactive).
